Experimental data reported in ChEMBL document CHEMBL1201862, “PubChem BioAssay data set” (2004).
Active and inactive are the calls of the source.

How the values were obtained:
[1] = biological target: Dual specificity tyrosine-phosphorylation-regulated kinase 1A (Rattus norvegicus, UniProt Q63470); type: biochemical, Homo sapiens
[2] = biological target: T1, Rac GTPase-activating protein 1 (Homo sapiens, UniProt Q9H0H5); test: blockers of MgcRacGAP-driven Rac1 GTP hydrolysis – biochemical, ADP Hunter fluorescence, primary and confirmatory, confirmation (AID 624330); type: functional
T1 sequence (Q9H0H5 whole entry): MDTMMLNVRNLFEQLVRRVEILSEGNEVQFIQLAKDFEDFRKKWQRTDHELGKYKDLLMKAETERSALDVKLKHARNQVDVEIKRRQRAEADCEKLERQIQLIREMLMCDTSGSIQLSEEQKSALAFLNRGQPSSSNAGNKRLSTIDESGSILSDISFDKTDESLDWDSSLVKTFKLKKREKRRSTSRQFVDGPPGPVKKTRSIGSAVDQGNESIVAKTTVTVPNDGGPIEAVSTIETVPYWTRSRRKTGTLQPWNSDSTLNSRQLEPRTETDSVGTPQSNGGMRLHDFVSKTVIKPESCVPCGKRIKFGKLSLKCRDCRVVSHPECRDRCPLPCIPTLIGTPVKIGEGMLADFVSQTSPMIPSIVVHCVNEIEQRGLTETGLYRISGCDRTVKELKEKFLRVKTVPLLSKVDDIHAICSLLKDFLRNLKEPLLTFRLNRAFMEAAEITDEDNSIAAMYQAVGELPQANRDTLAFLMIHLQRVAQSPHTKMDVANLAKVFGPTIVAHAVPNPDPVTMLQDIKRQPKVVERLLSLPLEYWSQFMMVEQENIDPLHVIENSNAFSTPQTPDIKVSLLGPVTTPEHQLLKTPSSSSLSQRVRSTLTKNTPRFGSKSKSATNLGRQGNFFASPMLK

Vero = test: cells; type: functional; settings: Chlorocebus sabaeus
[3] = intracellular Trypanosoma cruzi inhibitors in host cells – cell-based, plate reader, cherry-pick samples, set 3, dose response (AID 651818); type: functional;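 also: compounds incubated with infected cells for about four days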
[4] = A cytotoxicity screen of small molecule inhibitors of the PhoP region in Salmonella typhi identified in the primary screen. [Related pubchem assays: 1850, 1864, 1985 ]; type: functional
Cytochrome P450 3A4 = Cytochrome P450 3A4 (Homo sapiens, UniProt P08684);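 also: CYP3A4 tested as one member of a cytochrome P450 panel screen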
Sequence of Cytochrome P450 3A4 (P08684 whole entry): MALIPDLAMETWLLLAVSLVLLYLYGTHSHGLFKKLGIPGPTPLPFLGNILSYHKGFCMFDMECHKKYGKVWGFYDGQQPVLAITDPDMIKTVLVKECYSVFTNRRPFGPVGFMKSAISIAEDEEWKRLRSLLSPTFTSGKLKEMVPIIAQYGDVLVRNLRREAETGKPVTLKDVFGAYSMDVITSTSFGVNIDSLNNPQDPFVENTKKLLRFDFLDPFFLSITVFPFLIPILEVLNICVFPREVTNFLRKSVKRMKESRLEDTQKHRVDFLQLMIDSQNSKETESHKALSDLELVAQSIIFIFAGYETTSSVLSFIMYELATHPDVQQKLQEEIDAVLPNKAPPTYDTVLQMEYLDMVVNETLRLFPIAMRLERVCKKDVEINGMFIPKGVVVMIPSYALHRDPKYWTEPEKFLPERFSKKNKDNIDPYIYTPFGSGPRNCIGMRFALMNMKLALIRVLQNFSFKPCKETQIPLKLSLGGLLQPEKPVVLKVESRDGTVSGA

Cytochrome P450 2D6 = Cytochrome P450 2D6 (Homo sapiens, UniProt P10635);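 also: CYP2D6 member of a cytochrome P450 panel assay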
Sequence of Cytochrome P450 2D6 (P10635 whole entry): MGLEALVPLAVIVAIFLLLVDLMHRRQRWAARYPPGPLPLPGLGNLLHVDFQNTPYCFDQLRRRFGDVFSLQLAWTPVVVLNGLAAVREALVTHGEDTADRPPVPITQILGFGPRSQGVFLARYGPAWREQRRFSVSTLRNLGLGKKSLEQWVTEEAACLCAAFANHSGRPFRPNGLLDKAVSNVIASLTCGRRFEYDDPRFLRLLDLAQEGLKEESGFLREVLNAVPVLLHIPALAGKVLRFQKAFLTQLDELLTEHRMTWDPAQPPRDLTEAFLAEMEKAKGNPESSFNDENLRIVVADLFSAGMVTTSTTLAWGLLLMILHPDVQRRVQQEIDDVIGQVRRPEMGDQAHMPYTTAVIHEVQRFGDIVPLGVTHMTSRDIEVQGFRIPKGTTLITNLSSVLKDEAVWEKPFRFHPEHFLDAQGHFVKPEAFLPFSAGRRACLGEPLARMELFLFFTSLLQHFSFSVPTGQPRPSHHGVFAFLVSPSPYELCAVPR

P388 = test: cells; type: functional; settings: Mus musculus
P388/ADR = test: cells; type: functional; settings: Mus musculus
SN12K1 = test: cells; type: functional; settings: Homo sapiens
BJ [5] = test: cells; type: functional, cell-based; settings: Homo sapiens
[6] = DRD fibroblast viability loss – cell-based, non-viral oncogenic, luminescence, dose response (AID 1934); type: functional; settings: Homo sapiens
[7] = HEK-293T viability loss after treatment – luminescence, T-cell screen hits, cytotoxicity control for TCR NF-kB inhibitor project, dose response (AID 489026); type: functional, cell-based;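 also: cells exposed to compound about 14 hours before the viability readout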
INS1 = test: INS-1E survival protection against cytokine death – cell-based, luminescence, retest, dose response (AID 449756); type: functional; settings: Rattus norvegicus;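 also: cell death triggered by IL-1 beta plus TNF-alpha plus IFN-gamma mixture; protective hits raise ATP signal compared with cytokine alone wells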
[8] = NIH-3T3 fibroblast cytotoxicity, dose response, cytotoxicity control, cell-based, fluorescence, Alamar Blue, secondary assay (AID 2327); type: functional;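 also: NIH-3T3 mouse fibroblasts cultured with fluconazole at 8 µg/mL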
BJ [9] = test: BJ-TERT-LT-ST fibroblast viability loss – cell-based, RAS-independent, luminescence, dose response (AID 1935); type: functional; settings: Homo sapiens;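 also: BJ fibroblasts immortalized with TERT plus LT and ST oncogenes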
[10] = fluconazole-exposed Candida albicans growth modulators – fluorescence, retest, confirmation (AID 2467); type: functional, cell-based
cells [11] = type: functional, cell-based
cells [12] = type: functional, cell-based; remark: listed apart in the source
BJ [13] = test: BJ-TERT fibroblast viability loss – cell-based, RAS-independent, luminescence, dose response (AID 1933); type: functional; settings: Homo sapiens
Nonstructural protein 1 = Nonstructural protein 1 (Influenza A virus, UniProt Q194T2); type: functional, Influenza A virus (A/California/07/2009(H1N1))
Sequence of Nonstructural protein 1 (Q194T2 whole entry): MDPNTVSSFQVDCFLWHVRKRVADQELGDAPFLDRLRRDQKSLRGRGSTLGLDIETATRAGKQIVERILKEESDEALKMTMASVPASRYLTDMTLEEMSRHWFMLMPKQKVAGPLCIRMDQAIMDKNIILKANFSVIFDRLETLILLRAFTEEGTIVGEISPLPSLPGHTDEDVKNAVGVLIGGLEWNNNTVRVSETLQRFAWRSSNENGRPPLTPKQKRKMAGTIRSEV

[14] = biological target: T2, Calpain-2 catalytic subunit (Sus scrofa, UniProt P43367); test: m-calpain protease blockers, concentration series – biochemical, fluorogenic peptide substrate, dose response (AID 1420); type: functional
T2 sequence (P43367 whole entry): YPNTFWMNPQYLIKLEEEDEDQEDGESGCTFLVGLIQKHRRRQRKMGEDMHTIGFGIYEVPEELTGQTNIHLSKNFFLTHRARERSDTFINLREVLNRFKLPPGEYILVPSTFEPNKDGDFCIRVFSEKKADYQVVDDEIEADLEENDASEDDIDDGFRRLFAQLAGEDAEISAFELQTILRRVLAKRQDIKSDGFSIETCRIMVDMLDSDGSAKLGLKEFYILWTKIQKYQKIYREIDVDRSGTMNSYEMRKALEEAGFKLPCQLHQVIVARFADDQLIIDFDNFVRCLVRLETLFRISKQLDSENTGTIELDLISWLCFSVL

[15] = biological target: T3, Heat shock factor protein 1 (Mus musculus, UniProt P38532); test: enhancement of HSF1-driven luciferase signal – cell-based, NIH3T3, luminescence, dose retest, confirmation (AID 435004); type: functional;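 also: stress induced by proteasome inhibitor MG132 added 30 min after compound; luciferase reporter driven by HSF1 response element in NIH3T3 cells; actives raise luminescence as potentiators of the MG132 stress response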
T3 sequence (P38532 whole entry): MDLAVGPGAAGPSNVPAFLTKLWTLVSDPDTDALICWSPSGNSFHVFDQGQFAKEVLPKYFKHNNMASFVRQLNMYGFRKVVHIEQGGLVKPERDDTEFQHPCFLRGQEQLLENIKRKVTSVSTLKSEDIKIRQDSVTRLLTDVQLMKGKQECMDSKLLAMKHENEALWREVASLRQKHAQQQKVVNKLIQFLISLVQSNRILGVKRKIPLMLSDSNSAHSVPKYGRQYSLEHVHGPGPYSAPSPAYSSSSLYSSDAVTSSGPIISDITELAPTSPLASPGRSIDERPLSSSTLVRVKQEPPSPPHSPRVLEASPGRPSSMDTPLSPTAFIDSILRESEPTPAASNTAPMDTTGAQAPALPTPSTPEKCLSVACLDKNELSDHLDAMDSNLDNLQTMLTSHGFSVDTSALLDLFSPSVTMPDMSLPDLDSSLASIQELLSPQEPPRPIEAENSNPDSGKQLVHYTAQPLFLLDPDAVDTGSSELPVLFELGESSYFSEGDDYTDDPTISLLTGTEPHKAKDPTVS

[16] = tested on: Streptococcus sp. 'group A'; test: Streptococcus pyogenes SK(-)GAS viability under kanamycin – luminescence, BacTiterGlo, confirmation, counter-screen for streptokinase expression inhibitor project, dose response (AID 1900); type: functional, organism-based
Streptococcus = test: GAS UMAA2166 growth inhibition – luminescence, BacTiterGlo, counter-screen for streptokinase expression inhibitor project, dose response (AID 1915); type: functional, organism-based;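 also: potency for reduction of bacterial viability or growth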
Streptokinase A = biological target: T4, Streptokinase A (Streptococcus pyogenes serotype M1, UniProt P10520); test: viability-normalized secreted streptokinase activity reduction – plasminogen activation absorbance, OD405, dose response (AID 1914); type: functional, Streptococcus pyogenes M1 GAS;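 also: secreted streptokinase activity via plasminogen activation per viability signal from cell pellet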
T4 sequence (P10520 whole entry): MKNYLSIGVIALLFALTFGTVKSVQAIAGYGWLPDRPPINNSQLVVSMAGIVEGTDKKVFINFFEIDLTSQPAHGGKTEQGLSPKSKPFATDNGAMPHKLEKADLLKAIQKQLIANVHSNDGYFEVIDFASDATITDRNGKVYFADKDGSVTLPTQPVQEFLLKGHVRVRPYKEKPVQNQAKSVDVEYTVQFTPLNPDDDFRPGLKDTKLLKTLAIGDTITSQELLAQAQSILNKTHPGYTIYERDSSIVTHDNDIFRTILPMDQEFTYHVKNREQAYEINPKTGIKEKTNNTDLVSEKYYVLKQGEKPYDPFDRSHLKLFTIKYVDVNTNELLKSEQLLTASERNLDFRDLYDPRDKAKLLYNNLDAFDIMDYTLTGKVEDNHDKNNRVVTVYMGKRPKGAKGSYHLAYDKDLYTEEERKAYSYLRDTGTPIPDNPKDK

Fatty acid synthase [17] = biological target: T5, Fatty acid synthase (Homo sapiens, UniProt P49327); test: inhibition of human FAS-TE enzyme activity – biochemical, endpoint fluorescence intensity, uHTS hits, dose response (AID 624327); type: functional;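 also: fluorescence from hydrolysis of an O-methyl fluorescein acyl ester substrate by the enzyme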
T5 sequence (P49327 whole entry): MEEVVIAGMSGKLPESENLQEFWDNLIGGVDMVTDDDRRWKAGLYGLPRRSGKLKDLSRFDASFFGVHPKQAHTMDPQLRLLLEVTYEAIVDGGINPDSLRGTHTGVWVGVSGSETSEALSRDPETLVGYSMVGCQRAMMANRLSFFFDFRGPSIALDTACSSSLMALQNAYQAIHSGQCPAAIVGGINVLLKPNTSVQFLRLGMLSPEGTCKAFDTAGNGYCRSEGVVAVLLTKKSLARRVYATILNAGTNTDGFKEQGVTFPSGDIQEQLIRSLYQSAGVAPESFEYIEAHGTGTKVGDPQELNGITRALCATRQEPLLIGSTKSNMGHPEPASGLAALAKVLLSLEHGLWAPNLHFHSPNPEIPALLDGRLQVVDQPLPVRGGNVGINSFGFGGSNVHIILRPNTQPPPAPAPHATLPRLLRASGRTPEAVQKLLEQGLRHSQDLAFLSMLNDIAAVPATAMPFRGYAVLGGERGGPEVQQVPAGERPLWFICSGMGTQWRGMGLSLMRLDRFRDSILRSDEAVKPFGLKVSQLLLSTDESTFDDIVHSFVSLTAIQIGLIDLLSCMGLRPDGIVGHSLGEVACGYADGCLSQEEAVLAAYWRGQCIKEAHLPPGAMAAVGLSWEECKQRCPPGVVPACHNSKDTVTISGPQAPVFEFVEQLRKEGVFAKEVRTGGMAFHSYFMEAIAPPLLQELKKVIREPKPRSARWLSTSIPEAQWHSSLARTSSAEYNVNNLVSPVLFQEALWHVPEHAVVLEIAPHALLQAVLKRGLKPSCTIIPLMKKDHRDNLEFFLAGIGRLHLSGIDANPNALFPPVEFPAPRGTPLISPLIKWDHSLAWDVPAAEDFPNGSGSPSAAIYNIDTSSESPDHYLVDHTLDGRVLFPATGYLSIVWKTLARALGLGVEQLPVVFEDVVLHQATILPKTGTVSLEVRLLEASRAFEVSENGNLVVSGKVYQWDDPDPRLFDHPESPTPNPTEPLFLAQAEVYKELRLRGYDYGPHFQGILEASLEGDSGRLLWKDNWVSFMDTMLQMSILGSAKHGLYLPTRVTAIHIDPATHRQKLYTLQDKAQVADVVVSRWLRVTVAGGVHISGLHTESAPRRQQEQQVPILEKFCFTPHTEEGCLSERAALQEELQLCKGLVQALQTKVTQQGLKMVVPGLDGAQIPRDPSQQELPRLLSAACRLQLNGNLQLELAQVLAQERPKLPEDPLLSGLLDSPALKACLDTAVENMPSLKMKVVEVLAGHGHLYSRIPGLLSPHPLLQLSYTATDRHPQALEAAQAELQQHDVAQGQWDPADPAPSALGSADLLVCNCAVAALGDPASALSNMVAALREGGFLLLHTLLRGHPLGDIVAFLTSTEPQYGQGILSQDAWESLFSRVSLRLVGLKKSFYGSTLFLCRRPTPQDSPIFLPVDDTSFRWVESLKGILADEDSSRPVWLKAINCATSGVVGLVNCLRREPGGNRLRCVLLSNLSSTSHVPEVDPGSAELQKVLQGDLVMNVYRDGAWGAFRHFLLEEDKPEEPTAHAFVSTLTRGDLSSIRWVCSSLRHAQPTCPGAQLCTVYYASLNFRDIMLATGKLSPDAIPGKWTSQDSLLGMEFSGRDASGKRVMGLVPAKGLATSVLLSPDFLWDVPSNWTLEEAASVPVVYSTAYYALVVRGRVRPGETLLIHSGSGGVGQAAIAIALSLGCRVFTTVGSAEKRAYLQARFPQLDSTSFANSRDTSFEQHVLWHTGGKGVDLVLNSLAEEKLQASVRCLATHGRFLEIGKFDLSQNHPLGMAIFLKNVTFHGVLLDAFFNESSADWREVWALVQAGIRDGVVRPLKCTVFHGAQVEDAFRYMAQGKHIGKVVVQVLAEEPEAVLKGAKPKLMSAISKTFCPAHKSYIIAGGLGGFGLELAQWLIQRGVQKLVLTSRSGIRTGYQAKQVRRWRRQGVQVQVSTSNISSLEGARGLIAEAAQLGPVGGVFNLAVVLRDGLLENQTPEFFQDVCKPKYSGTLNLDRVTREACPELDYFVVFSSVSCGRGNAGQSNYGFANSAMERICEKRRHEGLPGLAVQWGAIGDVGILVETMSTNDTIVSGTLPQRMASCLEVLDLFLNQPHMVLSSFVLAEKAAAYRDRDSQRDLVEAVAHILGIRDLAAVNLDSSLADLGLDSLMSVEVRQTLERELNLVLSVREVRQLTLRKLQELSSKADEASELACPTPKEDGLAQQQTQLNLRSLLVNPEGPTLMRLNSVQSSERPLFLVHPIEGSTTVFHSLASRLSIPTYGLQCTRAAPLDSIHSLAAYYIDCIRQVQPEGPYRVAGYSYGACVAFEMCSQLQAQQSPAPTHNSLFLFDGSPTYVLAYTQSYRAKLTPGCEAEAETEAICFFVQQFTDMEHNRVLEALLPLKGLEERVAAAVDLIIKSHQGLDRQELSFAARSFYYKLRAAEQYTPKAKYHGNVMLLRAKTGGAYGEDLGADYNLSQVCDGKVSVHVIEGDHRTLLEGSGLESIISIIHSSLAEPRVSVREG

Fatty acid synthase [18] = biological target: T5, Fatty acid synthase; test: inhibition of human FAS-TE enzyme activity – biochemical, kinetic fluorescence intensity, dose response (AID 624326); type: functional;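 also: rate of fluorescence rise from hydrolysis of a fluorogenic O-methyl fluorescein ester substrate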

COc1cc(C2C(=O)c3ccccc3C2=O)ccc1O
AC50 [1]: 3.44 µM (active) | IC50 [2]: 16.1 µM (active)

COc1ccc(OC)c(/C=C2\SC(=S)N(Cc3cccnc3)C2=O)c1
CC50 (Vero): 14.8 µM (active)

C[C@H](CO)N1C[C@H](C)[C@@H](CN(C)S(=O)(=O)c2ccc(Cl)cc2)Oc2c(NC(=O)c3nc4ccccc4s3)cccc2C1=O
AC50 [3]: 1.73 µM (active)

O=C1SC(c2ccccc2)=C/C1=C\N1CCCCC1
AC50 [1]: 2.83 µM (active) | EC50 [4]: > 50 µM (active) | AC50 (Cytochrome P450 3A4): 25.1 µM (inconclusive) | AC50 (Cytochrome P450 2D6): 25.1 µM (inconclusive) | IC50 [2]: 45.9 µM (active)

O=C1C=C2SC3C[C@@]24CC1(O)[N+]1=c2c4c(c(O)c4c2=C(C=N4)CC1)N3
GI50 (P388): 0.869 µM (active) | GI50 (P388/ADR): 1.3 µM (inactive) | GI50 (SN12K1): 1.29 µM (inactive)

CC1(CO)C(O)CCC2(C)C1C(O)CC1CC3CC12CCC3(O)CO (stereo not given)
GI50 (P388): 11.2 µM (inactive) | GI50 (P388/ADR): 187 µM (inactive) | GI50 (SN12K1): 209 µM (inactive)

Cc1nnc(N/N=C/c2ccccn2)nc1O
EC50 (BJ [5]): 4.02 µM (active) | EC50 [6]: 5.38 µM (inconclusive) | IC50 [7]: > 80 µM (inactive) | AC50 (INS1): 1.56 µM (active) | EC50 [8]: 4.26 µM (active) | EC50 (BJ [9]): 5.42 µM (active) | EC50 [10]: 2.72 µM (active) | EC50 (cells [11]): 7.24 µM (active) | EC50 (cells [12]): > 350 µM (not active) | EC50 (BJ [13]): 1.69 µM (active) | IC50 (Nonstructural protein 1): 3.92 µM (active)

CCOC(=O)C1=C(c2ccccc2)NC(=O)NC1c1ccc(O)c(Cl)c1 (stereo not given)
EC50 (cells [11]): > 350 µM (not active) | EC50 (cells [12]): > 350 µM (not active) | CC50 (Vero): 22.5 µM (active)

C[C@@H]1CN([C@@H](C)CO)C(=O)Cc2cc(NC(=O)Nc3ccc(F)cc3)ccc2O[C@@H]1CN(C)Cc1ccc(Cl)c(Cl)c1
AC50 [3]: 3.42 µM (active)

CC1=CC2=C(C=O)C(=O)[C@](C)(O)[C@@H](O)C2=CO1
GI50 (P388): 15 µM (inactive) | GI50 (P388/ADR): 14.5 µM (inactive) | GI50 (SN12K1): 30.4 µM (inactive)

COC1CC(C)C(OC)c2cc(O)cc(c2O)NC(=O)/C(C)=C/C=C\C(C)C(OC(N)=O)/C(C)=C\C(C)C1OC (stereo not given)
GI50 (P388): 0.0693 µM (active) | GI50 (P388/ADR): 1.55 µM (inactive)

O=C1CC(c2cccc(Br)c2)c2cc3c(cc2N1)CCC3 (stereo not given)
IC50 [7]: > 80 µM (inactive) | IC50 [14]: > 50 µM (not active)

Cc1noc(NS(=O)(=O)c2ccc(NC(=O)c3oc4ccc(F)cc4c3C)cc2)c1C
AC50 [1]: 9.87 µM (active) | EC50 [15]: > 260 µM (inactive)

CCOCC(=O)N(C)c1cccc2c3c(n(C)c12)CCCCC3
GI50 (P388): > 100 µM (inactive) | GI50 (P388/ADR): > 100 µM (inactive) | GI50 (SN12K1): > 100 µM (inactive)

COc1ccc(S(=O)(=O)Nc2ccc3c(c2)CC(=O)N([C@H](C)CO)C[C@@H](C)[C@@H](CN(C)S(=O)(=O)c2ccc(F)cc2)O3)cc1
AC50 [3]: 2.24 µM (active)

Fc1ccc(C2Nc3cccc4cccc(c34)N2)cc1
AC50 [1]: 16.4 µM (active)

COCCCn1c(N)c(C(=O)Nc2ccccc2)c2nc3ccccc3nc21
EC50 [16]: 16.9 µM (active) | EC50 (Streptococcus): 32.8 µM (active) | EC50 (Streptokinase A): > 150 µM (not active) | CC50 (Vero): > 25 µM (active)

CC[C@@]1(O)C(=O)OCc2c1cc1n(c2=O)Cc2cc3cc(O)ccc3nc2-1 [HYDROXYCAMPTOTHECIN]
GI50 (P388): 0.0203 µM (active) | GI50 (P388/ADR): 0.0304 µM (active) | GI50 (SN12K1): 0.01 µM (active)

N=C(N)/N=N/c1c(O)[nH]c2ccc(Br)cc12
AC50 [1]: 5.14 µM (active)

COc1ccc(CNC(=O)CC2C[C@H](C(=O)N3CCOCC3)[C@@]3(CCC4CCCC4)c4[nH]c5ccccc5c4CCN3C2=O)cc1OC (stereo not given in full)
IC50 (Fatty acid synthase [17]): 3.67 µM (active) | IC50 (Fatty acid synthase [18]): 4.73 µM (active)

Cc1ccc(S(=O)(=O)Nc2ccc3c(c2)CC(=O)N([C@@H](C)CO)C[C@H](C)[C@H](CN(C)Cc2ccc(C(=O)Nc4ccccc4N)cc2)O3)cc1
AC50 [3]: 2.31 µM (active)
